Data: ChEMBL document CHEMBL1132070, “Piperidinyl-3-phosphinic acids as novel uptake inhibitors of the neurotransmitter gamma-aminobutyric acid (GABA)” (Bioorg Med Chem Lett, 1999)

Species on record: Rattus norvegicus
Test: Inhibition of [3H]GABA (gamma amino butyric acid) uptake in vitro in rat brain synaptosomes
Assay type: functional

SMILES	IC50
O=[PH](O)C1CCCNC1 (stereo not given)	24 µM
CP(=O)(O)C1CCCNC1 (stereo not given)	> 1000 µM
O=[PH](O)C1CCCN(CCC=C(c2ccccc2)c2ccccc2)C1 (stereo not given)	53 µM

Continued, values first:

IC50	SMILES
0.1 µM	O=C(O)C1CCCN(CCC=C(c2ccccc2)c2ccccc2)C1 (stereo not given)
4 µM	O=C(O)C1CCCNC1 (stereo not given) [NIPECOTIC ACID]
